{
  "source": "ChEMBL document CHEMBL3751764",
  "about": "“Synthesis and in vitro antiproliferative activity of novel pyrazolo[3,4-d]pyrimidine derivatives” (Medchemcomm, 2015)",
  "key": {"[1]": {"molecular_target": "Platelet-derived growth factor receptor (Homo sapiens) (UniProt P09619+P16234)", "experiment": "Inhibition of PDGFR (unknown origin) at 10 uM after 20 to 40 mins by liquid scintillation counting analysis in presence of […]", "type": "protein-complex assay"}, "[2]": {"system": "A549", "experiment": "Cytotoxicity against human A549 cells after 72 hrs by SRB assay", "type": "functional, cell-based", "details": "A549, 72 h"}, "[3]": {"experiment": "Cytotoxicity against human HOP62 cells after 72 hrs by SRB assay", "type": "functional", "details": "HOP-62, 72 h"}, "[4]": {"system": "NCI-H226", "experiment": "Cytotoxicity against human NCI-H226 cells after 72 hrs by SRB assay", "type": "functional", "details": "NCI-H226, 72 h"}, "[5]": {"system": "NCI-H322M", "experiment": "Cytotoxicity against human NCI-H322M cells after 72 hrs by SRB assay", "type": "functional"}, "[6]": {"experiment": "Cytotoxicity against human SNB75 cells after 72 hrs by SRB assay", "type": "functional", "details": "SNB-75, 72 h"}, "[7]": {"system": "SK-MEL-28", "experiment": "Cytotoxicity against human SK-MEL-28 cells after 72 hrs by SRB assay", "type": "functional", "details": "SK-MEL-28, 72 h"}, "[8]": {"system": "A498", "experiment": "Cytotoxicity against human A498 cells after 72 hrs by SRB assay", "type": "functional", "details": "A498, 72 h"}, "[9]": {"experiment": "Cytotoxicity against human TK10 cells after 72 hrs by SRB assay", "type": "functional", "details": "TK-10, 72 h"}, "[10]": {"experiment": "Cytotoxicity against human PC3 cells after 72 hrs by SRB assay", "type": "functional", "details": "PC-3, 72 h"}, "[11]": {"details": "read-out: LC50 (the source's name)"}},
  "note": "Calls of active or inactive are those of the source. No cut-off for these calls is given here.",
  "data": [
    {"smiles": "O=c1sc2cc(Nc3ncnc4c3cnn4-c3ccccc3)ccc2n1Cc1ccc(Cl)cc1", "values": [
      {"measurement": "inhibition", "setting": "[1]", "result": "inactive"}
    ]},
    {"smiles": "O=C(NC1CCCCC1)c1ccc(Nc2ncnc3c2cnn3-c2ccccc2)cc1", "values": [
      {"measurement": "GI50", "setting": "[2]", "result": 4.38, "unit": "µM"},
      {"measurement": "IC50", "setting": "[2]", "result": 66.6, "unit": "µM"},
      {"measurement": "LC50", "setting": "[2]", "result": "> 100", "unit": "µM"},
      {"measurement": "TGI", "setting": "[2]", "result": 51.3, "unit": "µM"},
      {"measurement": "GI50", "setting": "[3]", "result": 2.62, "unit": "µM"},
      {"measurement": "TGI", "setting": "[3]", "result": 8.78, "unit": "µM"},
      {"measurement": "CC50", "setting": "[3]; [11]", "result": 37.3, "unit": "µM"},
      {"measurement": "GI50", "setting": "[4]", "result": 3.35, "unit": "µM"},
      {"measurement": "TGI", "setting": "[4]", "result": 21.5, "unit": "µM"},
      {"measurement": "CC50", "setting": "[4]; [11]", "result": "> 100", "unit": "µM"},
      {"measurement": "GI50", "setting": "[5]", "result": 15.8, "unit": "µM"},
      {"measurement": "TGI", "setting": "[5]", "result": "> 100", "unit": "µM"},
      {"measurement": "CC50", "setting": "[5]; [11]", "result": "> 100", "unit": "µM"},
      {"measurement": "GI50", "setting": "[6]", "result": 1.71, "unit": "µM"},
      {"measurement": "TGI", "setting": "[6]", "result": 5.4, "unit": "µM"},
      {"measurement": "CC50", "setting": "[6]; [11]", "result": 35.9, "unit": "µM"},
      {"measurement": "GI50", "setting": "[7]", "result": 3.79, "unit": "µM"},
      {"measurement": "TGI", "setting": "[7]", "result": "> 100", "unit": "µM"},
      {"measurement": "CC50", "setting": "[7]; [11]", "result": "> 100", "unit": "µM"},
      {"measurement": "GI50", "setting": "[8]", "result": 3.83, "unit": "µM"},
      {"measurement": "TGI", "setting": "[8]", "result": 39.4, "unit": "µM"},
      {"measurement": "CC50", "setting": "[8]; [11]", "result": "> 100", "unit": "µM"},
      {"measurement": "GI50", "setting": "[9]", "result": 16.5, "unit": "µM"},
      {"measurement": "TGI", "setting": "[9]", "result": 49.5, "unit": "µM"},
      {"measurement": "CC50", "setting": "[9]; [11]", "result": "> 100", "unit": "µM"},
      {"measurement": "GI50", "setting": "[10]", "result": 11.8, "unit": "µM"},
      {"measurement": "TGI", "setting": "[10]", "result": 44.8, "unit": "µM"},
      {"measurement": "CC50", "setting": "[10]; [11]", "result": "> 100", "unit": "µM"}
    ]}
  ]
}
